Results reported in PMC6834760 (2019).
Values belong to the molecule of their own block, whether it stands above or below them.

Tested on: Apt(ATP) (DNA, aptamer) TCTCTCACCTGGGGGAGTATTGCGGAGGAAGGT
Assay: FAM fluorescence quenching titration
Settings: 100 mM NaCl, 5 mM MgCl2, 20 mM Tris-HCl, pH 7.4, 66.7 nM aptamer

binding (35.7% quenching at about 330 μM): weak
Compound: Nc1ccn([C@@H]2O[C@H](COP(=O)(O)OP(=O)(O)OP(=O)(O)O)[C@@H](O)[C@H]2O)c(=O)n1

binding (18.6% quenching at about 330 μM): weak
Compound: Nc1nc2c(ncn2[C@@H]2O[C@H](COP(=O)(O)OP(=O)(O)OP(=O)(O)O)[C@@H](O)[C@H]2O)c(=O)[nH]1

binding (67.1% quenching at about 0.33 mM ATP): yes
Compound: Nc1ncnc2c1ncn2[C@@H]1O[C@H](COP(=O)(O)OP(=O)(O)OP(=O)(O)O)[C@@H](O)[C@H]1O

binding (weaker quenching than ATP, up to about 330 μM): weak
Compound: O=c1ccn([C@@H]2O[C@H](COP(=O)(O)OP(=O)(O)OP(=O)(O)O)[C@@H](O)[C@H]2O)c(=O)[nH]1
